Columns and labels:
[1] = test system: Col1a1; test: Hepatic expression of Col1a1 by qRT-PCR, CDHFD/NaNO2 rat model of NASH; format: in vivo, male Wistar rats; conditions: vs vehicle; rats; Formula (I) 0.2% in diet, Formula (III) 30 mg/kg/day, week 4 to 14
Protocol: (§1) The following study was conducted to evaluate the efficacy of the combination of an ASK1 inhibitor and an FXR agonist in a rodent model of non-alcoholic steatohepatitis (NASH), relative to the efficacy of the individual agents alone in the model. NASH was induced in male Wistar rats by administration of a choline-deficient high fat diet (CDHFD) combined with the chronic administration of sodium nitrite (CDHFD/NaNO2). The model capitalizes on the “two hit theory” of NASH by inducing both metabolic dysfunction (CDHFD) and oxidative stress (NaNO2) in the liver to result in hepatic fibrosis that is similar in character and severity to that seen in patients with advanced NASH. […] The following endpoints were assessed at the completion of the 14 week study: i) liver fibrosis measured by liver hydroxyproline (OHP) content and by quantitative morphometric analysis of collagen content by Picosirius red (PSR) staining; ii) myofibroblast activation in liver sections as measured by quantitative IHC of the myofibroblast marker desmin; and, iii) Col1a1 and Timp1 in liver tissue measured by RT-PCR. […] All endpoints were assessed at the completion of the 14 week study protocol. […] Quantitative PCR was performed and analyzed using Absolute QPCR Rox Mix (Life Technologies, Cat No # AB-1132) and a 384-format ABI 7900HT Sequence Detection System (Applied Biosystems). […]

[2] = test system: TIMP-1; test: Hepatic expression of TIMP-1 by qRT-PCR, CDHFD/NaNO2 rat model of NASH; format: in vivo, male Wistar rats; conditions: vs vehicle; rats; Formula (I) 0.2% in diet, Formula (III) 30 mg/kg/day, week 4 to 14
Protocol: as §1

[3] = test system: FFD mice; test: Hepatic steatosis (% vacuolation area, H&E morphometry) in fast food diet (FFD) mouse model of NASH; format: in vivo, male C57BL/6 mice; conditions: Formula (I) 0.15% admixture in diet, Formula (III) 10 mg/kg PO QD, months 7-10
Protocol: The following study was conducted to evaluate the efficacy of the combination of an ASK1 inhibitor and an FXR agonist in a mouse model of non-alcoholic steatohepatitis (NASH), relative to the efficacy of the individual agents alone in the model. NASH was induced in male C57BL/6 mice by chronic administration of a “fast food” diet (FFD) high in saturated fats, cholesterol and sugars for a total of 10 months, whereas lean control animals were maintained on a normal chow diet. A NASH phenotype was established in FFD mice compared to control mice by 7 months, and was characterized by obesity, hypercholesterolemia, and AST/ALT elevation; and by histological features of NASH such as hepatocellular macrovesicular steatosis and ballooning degeneration. […] Endpoint analyses included morphometric quantification of liver steatosis (% of steatotic area), liver cholesterol content, serum ALT/AST levels, serum bile acid levels, and nanostring evaluation of gene expression. […] Extent of steatosis was determined on H&E stained tissue sections using the Definiens Developer software package. […] The number and size of these areas were enumerated and the total steatotic area was expressed as a percentage of total liver tissue cross-sectional area. […]

| SMILES | reduction of hepatic Col1a1 expression induced by CDHFD/NaNO2 [1] [%] | reduction of hepatic TIMP-1 expression induced by CDHFD/NaNO2 [2] | reduction in steatosis (H&E stained liver sections) [3] [%] |
| --- | --- | --- | --- |
| O=C(Nc1cccc(-c2nncn2C2CC2)c1)c1cc(-n2cnc(C3CC3)c2)ccn1 [Formula (I)] | 65 | 28% | 39 |
| O=C(O)c1ccnc(N2CC(O)(c3ccc(OCc4c(-c5c(Cl)cccc5Cl)noc4C4CC4)cc3Cl)C2)c1 [Formula (III)] | 44 | did not significantly reduce | 27 |
